Test results from patent publication US20140350081A1, “INSECT G-COUPLED RECEPTORS USEFUL AS TARGETS FOR INSECTICIDES AND COMPOUNDS AND REAGENTS IDENTIFIED USING THE SAME” (priority 2011, published 2014).
Like-named read-outs stand apart in the source and are kept apart here.

How the values were obtained:
Isdop1 [1] = molecular target: T1, Isdop1 (Ixodes scapularis, UniProt A0ACM8FJJ0); test: CRE-Luc reporter assay, HEK cells stably expressing Isdop1; format: cell-based
AaDOP2 [2] = molecular target: T2, AaDOP2 (Aedes aegypti, UniProt H6D5H2); test: CRELuc reporter dose-response in HEK293 cells stably expressing AaDOP2; format: cell-based
T2 sequence (H6D5H2 entry or part of it): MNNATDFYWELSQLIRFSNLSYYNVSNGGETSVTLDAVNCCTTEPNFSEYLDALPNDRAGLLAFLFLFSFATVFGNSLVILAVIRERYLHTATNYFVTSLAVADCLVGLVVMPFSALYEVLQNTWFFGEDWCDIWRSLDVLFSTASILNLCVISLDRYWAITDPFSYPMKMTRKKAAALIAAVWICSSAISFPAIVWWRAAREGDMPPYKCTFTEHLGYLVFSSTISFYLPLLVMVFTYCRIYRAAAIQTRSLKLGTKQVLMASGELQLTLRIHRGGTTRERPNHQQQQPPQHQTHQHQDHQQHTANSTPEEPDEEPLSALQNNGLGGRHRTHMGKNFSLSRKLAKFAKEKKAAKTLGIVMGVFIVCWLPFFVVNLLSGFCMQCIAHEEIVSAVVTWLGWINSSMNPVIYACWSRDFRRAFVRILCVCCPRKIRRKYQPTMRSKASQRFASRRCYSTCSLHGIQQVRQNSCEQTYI

Isdop2 [3] = molecular target: T3, Isdop2 (Ixodes scapularis, UniProt A0ACM8DGL0); test: CRE-Luc reporter assay, HEK cells stably expressing Isdop2; format: cell-based
T3 sequence (A0ACM8DGL0 entry or part of it): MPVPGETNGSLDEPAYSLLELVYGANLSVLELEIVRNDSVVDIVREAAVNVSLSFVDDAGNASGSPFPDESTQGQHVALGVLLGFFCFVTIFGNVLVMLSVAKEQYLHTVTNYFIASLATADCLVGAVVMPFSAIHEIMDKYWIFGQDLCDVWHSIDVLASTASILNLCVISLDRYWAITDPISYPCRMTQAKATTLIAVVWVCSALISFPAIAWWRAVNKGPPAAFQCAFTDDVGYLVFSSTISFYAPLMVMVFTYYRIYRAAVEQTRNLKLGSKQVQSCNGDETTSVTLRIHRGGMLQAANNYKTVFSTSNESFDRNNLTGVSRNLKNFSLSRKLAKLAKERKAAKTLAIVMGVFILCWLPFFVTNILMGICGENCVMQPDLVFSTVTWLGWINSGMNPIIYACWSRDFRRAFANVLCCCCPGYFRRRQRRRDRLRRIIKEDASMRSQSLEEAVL

AaDOP2 [4] = molecular target: T2, AaDOP2; test: AaDOP2 agonist screen against the LOPAC1280 library; format: cell-based; details: 10 μM compound; percent of response to 1 μM dihydrexidine
[5] = tested on: adult male Blatella germanica; test: Cockroach contact assay (topical application); format: in vivo; details: 200 mM compound
Source text: (§1) A series of whole organism bioassays was developed to further evaluate the toxicity of chemistries to a range of agricultural, veterinary and public health pests and non-target insects (Tables 12 and 13). These assays are designed to rapidly explore the biological activity spectrum of chemistries as well as to facilitate initial investigations of the mode of action of insecticidal compounds. Briefly, assays were developed for the German cockroach (Blatella germanica, urban pest), termite (Reticulitermes flavipes; urban pest), lone star tick (Amblyomma americana; veterinary and public health pest), soybean aphid (Aphis glycines, agricultural pest) and honeybee (Apis mellifera; beneficial, non-target insect). The assays were designed to test the toxicity and speed of kill of multiple chemistries on contact. Each of these assays was performed as a single point dose experiment in triplicate using either topical application of compound to the ventral thorax ([…]; 50-80 μg effective dose depending on compound) as is the case for our cockroach and honeybee assays, or 10 second immersion in a solution of the compound diluted in water or DMSO:EtOH to a final concentration of 100 μM. The assays were conducted in 24-well plate format with mortality assessment following incubation at 22° C. as described above. Commercial insecticides were incorporated in these assays to provide a positive control and permit initial comparative analyses. Lead chemistries identified in our in vivo screen have been evaluated in the cockroach and termite assays.

Ae. aegypti L3 larvae [6] = details: 400 μM, three independent experiments
Ae. aegypti L3 larvae [7] = test: Ae. aegypti L3 concentration response and time course assays; format: in vivo, Aedes aegypti; details: for LT50: 400 μM, L3 larval time course assay; for LC50: Aedes aegypti
Procedure: Briefly, chemistries were diluted to appropriate concentration in water and added to the wells of 24-well plates containing 5 L3 stage Ae. aegypti larvae to achieve a final concentration of 400, 200, 100, 50 and 25 μM in 1 ml sterile RO water. Chemistries were tested in quadruplicate at each concentration. […] Results reported here represent a minimum of three independent CRC experiments (i.e., n=3).

Ae. aegypti L3 larvae [8] = test: whole plant or invertebrate; details: Aedes aegypti
[9] = tested on: adult male Blatella germanica; test: Cockroach assay of Table 16 (title contact assay, text feeding assay); format: in vivo; details: 200 mM compound
Source text: as §1

AaDOP2 [10] = molecular target: T2, AaDOP2; test: HTRF cAMP accumulation concentration response assay (Cisbio Dynamic 2); format: cell-based; details: AaDOP2 expressing cells in the presence of dopamine; No Inhibition = <10% inhibition at 3 μM test compound; read-out: IC50 ± S.E.M. (nM), HTRF cAMP assay
Isdop2 [11] = molecular target: T3, Isdop2; test: cAMP accumulation in HEK 293 cells transiently expressing Isdop2; format: cell-based
AaDOP1 = AaDOP1 (Aedes aegypti, UniProt H6D5H1); test: CRELuc reporter dose-response in HEK293 cells stably expressing AaDOP1; format: cell-based; details: HEK293 cells stably expressing CRELuc reporter and AaDOP1
Sequence of AaDOP1 (H6D5H1 entry or part of it): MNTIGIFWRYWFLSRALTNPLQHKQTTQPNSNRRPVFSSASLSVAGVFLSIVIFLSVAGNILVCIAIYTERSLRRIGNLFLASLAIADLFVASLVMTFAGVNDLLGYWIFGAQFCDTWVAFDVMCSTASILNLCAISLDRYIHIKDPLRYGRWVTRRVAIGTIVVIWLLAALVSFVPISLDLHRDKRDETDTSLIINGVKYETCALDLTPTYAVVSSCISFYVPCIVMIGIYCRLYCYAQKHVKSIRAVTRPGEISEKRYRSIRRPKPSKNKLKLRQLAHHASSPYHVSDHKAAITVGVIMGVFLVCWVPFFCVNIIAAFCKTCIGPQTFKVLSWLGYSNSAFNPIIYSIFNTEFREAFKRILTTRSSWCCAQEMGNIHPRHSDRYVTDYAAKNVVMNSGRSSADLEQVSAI

Isdop1 [12] = molecular target: T1, Isdop1; test: cAMP accumulation in HEK 293 cells transiently expressing Isdop1; format: cell-based
Isdop2 [13] = molecular target: T3, Isdop2; test: cell-based; details: read-out: % Inhibition (of response to dopamine), Isdop2 screen
[14] = tested on: adult Reticulitermes flavipes; test: Termite immersion assay; format: in vivo; details: in vivo
Source text: A series of whole organism bioassays was developed to further evaluate the toxicity of chemistries to a range of agricultural, veterinary and public health pests and non-target insects (Tables 12 and 13). These assays are designed to rapidly explore the biological activity spectrum of chemistries as well as to facilitate initial investigations of the mode of action of insecticidal compounds. Briefly, assays were developed for the German cockroach (Blatella germanica, urban pest), termite (Reticulitermes flavipes; urban pest), lone star tick (Amblyomma americana; veterinary and public health pest), soybean aphid (Aphis glycines, agricultural pest) and honeybee (Apis mellifera; beneficial, non-target insect). The assays were designed to test the toxicity and speed of kill of multiple chemistries on contact. Each of these assays was performed as a single point dose experiment in triplicate using either topical application of compound to the ventral thorax (1 μl of a […] compound solution in 1:1 v:v DMSO:EtOH vehicle; 50-80 μg effective dose depending on compound) as is the case for our cockroach and honeybee assays, or 10 second immersion in a solution of the compound diluted in water or DMSO:[…] The assays were conducted in 24-well plate format with mortality assessment following incubation at 22° C. as described above. Commercial insecticides were incorporated in these assays to provide a positive control and permit initial comparative analyses. Lead chemistries identified in our in vivo screen have been evaluated in the cockroach and termite assays.

AaDOP2 [15] = molecular target: T2, AaDOP2; test: LOPAC1280 antagonist screen in HEK-CRELuc-Aadop2 cells; format: cell-based
[16] = 0.5 h, read-out: mortality of the mosquito population within 30 minutes, 400 μM, L3 larvae
[17] = 0.5 h, read-out: percent mortality 0.5 hr, 400 uM, L3 larvae, value for this scoring time
[18] = 1 h, read-out: percent mortality 1 hr, 400 uM, L3 larvae, per scoring time
[19] = 2 h, read-out: percent mortality 2 hr, 400 uM, L3 larvae, per scoring time
[20] = 3 h, read-out: percent mortality 3 hr, 400 uM, L3 larvae, per scoring time
[21] = 4 h, read-out: percent mortality 4 hr, 400 uM, L3 larvae, per scoring time
[22] = 24 h, read-out: percent mortality 24 hr, 400 uM, L3 larvae, per scoring time
[23] = 48 h, read-out: Toxicity to Aedes aegypti larvae (mortality) 48 hours, 400 μM, L3 larvae, three independent experiments
[24] = 48 h, read-out: percent mortality 48 hr, 400 uM, L3 larvae, per scoring time
[25] = 72 h, read-out: Cumulative % Mortality (72 hrs), 400 uM, L3 larvae
[26] = 72 h, read-out: Toxicity to Aedes aegypti larvae (mortality) 72 hours, 400 μM, L3 larvae, three independent experiments
[27] = 72 h, read-out: percent mortality 72 hr, 400 uM, L3 larvae, per scoring time
[28] = 10 μM agonist, transient expression
[29] = 10 μM biogenic amine, 300 nM propranolol, cAMP accumulation, mean±standard error

Row | Structure (SMILES) | % Mortality 24 hrs [5] [%] | % Mortality 48 hrs [5] [%] | % Mortality 72 hrs [5] [%] | % Mortality 120 hrs [5] [%] | % Mortality 240 hrs [5] [%] | LT50 (Ae. aegypti L3 larvae [7]) [min] | mortality at 400 µM (Ae. aegypti L3 larvae [8]; [16]) [%] | mortality at 400 µM (Ae. aegypti L3 larvae [8]; [17]) [%] | mortality at 400 µM (Ae. aegypti L3 larvae [8]; [18]) [%] | mortality at 400 µM (Ae. aegypti L3 larvae [8]; [19]) [%] | mortality at 400 µM (Ae. aegypti L3 larvae [8]; [20]) [%] | mortality at 400 µM (Ae. aegypti L3 larvae [8]; [21]) [%] | mortality at 400 µM (Ae. aegypti L3 larvae [8]; [22]) [%] | mortality at 400 µM (Ae. aegypti L3 larvae [8]; [23]) [%] | mortality at 400 µM (Ae. aegypti L3 larvae [8]; [24]) [%] | mortality at 400 µM (Ae. aegypti L3 larvae [8]; [25]) [%] | mortality at 400 µM (Ae. aegypti L3 larvae [8]; [26]) [%] | mortality at 400 µM (Ae. aegypti L3 larvae [8]; [27]) [%] | % Mortality 24 hrs [9] [%] | % Mortality 48 hrs [9] [%] | other results
1 | CNC[C@H](O)c1ccc(O)c(O)c1 [Epinephrine] |  |  |  |  |  |  |  |  |  |  |  |  |  |  |  |  |  |  |  |  | EC50 (Isdop1 [1]): 1900 ± 300 nM; behaviour at the AaDOP2 receptor in follow up CRCs (AaDOP2 [2]; HEK 293-CRELuc cells, FIG. 21A): partial agonists; EC50 (Isdop2 [3]): 3500 ± 1000 nM; % of DHX (AaDOP2 [4]): 90%
2 | CN1CC2c3ccccc3Oc3ccc(Cl)cc3C2C1 (stereo not drawn) [Asenapine] | 5 | 5 | 10 | 10 | 10 | 30 | > 70 | 70 | 20 | 10 | 0 | 0 | 0 | 100 | 0 | 100 | 100 | 0 | 17 | 20 | Toxicity to Aedes aegypti larvae (mortality) 24 hours (Ae. aegypti L3 larvae [6]): 100%; LC50 (Ae. aegypti L3 larvae [7]): 40000 nM; mortality at 400 µM (Ae. aegypti L3 larvae [8]; […], read-out: percent mortality […], 400 uM, L3 larvae, per scoring time): 0%; % Mortality 72 hrs [9]: 27%; % Mortality 120 hrs [9]: 27%; IC50 (AaDOP2 [10]): 0.3 ± 0.06 nM
3 | Oc1cc2c(c(Cl)c1O)CCNCC2c1ccccc1 (stereo not drawn) [SKF 81297] |  |  |  |  |  |  |  |  |  |  |  |  |  |  |  |  |  |  |  |  | increase in cAMP, Isdop2 (Isdop2 [11]; [28]): ca. two-fold-over-basal; EC50 (AaDOP1): 24 ± 7 nM; EC50 (AaDOP2 [2]; HEK293 cells stably expressing CRELuc reporter and AaDOP2, ≧10 μM = lacks intrinsic activity, read-out: EC50 values AaDOP2): ≥ 10000 nM; intracellular cAMP compared to basal, Isdop1 (Isdop1 [12]; [28]): modest, yet significant increases; % of DHX (AaDOP2 [4]): 38%
4 | CN(C)CCCN1c2ccccc2Sc2ccc(Cl)cc21 [Chlorpromazine] | 3 | 10 | 10 | 14 | 17 | 178 | > 70 | 70 | 0 | 10 | 0 | 0 | 10 | 100 | 0 | 100 | 100 | 0 | 7 | 17 | Toxicity to Aedes aegypti larvae (mortality) 24 hours (Ae. aegypti L3 larvae [6]): 100%; LC50 (Ae. aegypti L3 larvae [7]): 92000 nM; % Mortality 72 hrs [9]: 17%; % Mortality 120 hrs [9]: 20%; IC50 (AaDOP2 [10]): 17 nM; inhibition at 10 µM (Isdop2 [13]): 92%
5 | NCCc1ccc(O)cc1 [Tyramine] |  |  |  |  |  |  |  |  |  |  |  |  |  |  |  |  |  |  |  |  | Stimulatory response (fold-over-basal) Isdop2 (Isdop2 [11]; [29]): 1.27 ± 0.22 fold-over-basal; Stimulatory response (fold-over-basal) Isdop1 (Isdop1 [12]; [29]): 1.34 ± 0.11 fold-over-basal
6 | CCNC(=O)N1CCN(CCCC(c2ccc(F)cc2)c2ccc(F)cc2)CC1 [Amperozide, 4-[4,4-bis(4-fluorophenyl)butyl]-N-ethylpiperazine-1-carboxamide] | 0 | 0 | 0 | 5 | 5 | 42 | > 70 | 90 | 0 | 0 | 0 | 0 | 0 | 93 | 0 | 100 | 93 | 0 | 0 | 0 | % Mortality 72 hrs [9]: 3%; % Mortality 120 hrs [9]: 7%; mortality of adult termites [14]: 70-100%; % of the SCH23390 effect (AaDOP2 [15]; 10 μM compound, 300 nM dopamine, quadruplicate): 83%; % inhibition of DA activity (Aedes cell-based assay screen) (AaDOP2 [15]; LOPAC1280 screen hits): 83%; IC50 (AaDOP2 [10]): 570 ± 110 nM; inhibition at 10 µM (Isdop2 [13]): 69%
